Reference: patent US20230348419A1, “BIAMINOQUINOLINES AND NANOFORMULATIONS FOR CANCER TREATMENT” (The Regents of the University of California, priority 2019, published 2023)
Blank lines part the entries; values can stand above or below the compound they belong to.

Key:
OSC-3 cells = assay: PBC NPs in OSC-3 cells (lysosomes, apoptosis, photodynamic therapy); type: cell-based; settings: LC3-GFP-RFP imaging and immunoblotting
[1] = Drug loading using BAQ13 NPs; type: physicochemical
Protocol: Preparation and characterization of BAQ ONNs. NPs were prepared through the re-precipitation method. BAQ derivatives in methanol were added dropwise into MilliQ water while stirring for 5 min (volume ratio, 1:10), and then homogenous NPs were obtained after rotary evaporation (40° C., 20 min), followed by the characterization with Zetasizer Nano ZS (Malvern). The TEM samples were prepared by dropping 0.5 mM NPs on carbon square mesh and dried naturally, which were then observed under the Talos L120C TEM (FEI) at an accelerating voltage of 80 kV. To determine the drug content in nanoformulations, the prepared drug-loaded NPs were cut off by centrifugal filter (ultracel-10 kDa, Millipore), and the absorbance of filtrate (diluted with DMSO, 1:10, volume ratio) was measured for calculation of drug concentrations.
Next investigation was whether liposome-like BAQ ONNs can encapsulate additional agents. Upon nanoprecipitation of BAQ13 and various agents, homogeneous NPs with monomodal size distributions spontaneously formed (Table 2 and FIG. 9G).

PCSC tumours = assay: PCSC xenograft model; type: in vivo, NRG mice; settings: combination therapy study, every three days
Excerpt: In vivo treatment schedule.

[2] = tested on: autophagy (LC3B-II, SQSTM1/p62) in MIA PaCa-2 cells; assay: Autophagy inhibition (immunoblot, LC3B-GFP imaging, TEM); type: cell-based, human; settings: western blotting, compared to untreated and Lys05-treated cells
Protocol: LC3B-GFP imaging. Cells in a 96-well plate (5,000 cell per well) were transfected by the autophagy sensor LC3B-GFP (Thermo Fisher) for 12 h. After treated as indicated for 4 h, cells were visualized by a fluorescence microscope (Olympus). The puncta per well were quantified using ImageJ 1.51s.
Western Blot. The cell or tumour samples were lysed with RIPA Buffer (Thermo Fisher). After centrifugation at 4° C. (15 min, 12,000×g), the concentrations of proteins in supernatant and determined by Bradford Protein Assay dye (Bio-Rad). Immunoblotting was performed routinely and were developed using a ChemiDoc™ MP imaging system.
TEM of cells and tumour tissue. MIA PaCa-2 cells in 8-well slide plates (30,000 cell per well, Lab-Tek) were treated as indicated for 48 h. The freshly harvested tumours were cut into 1 mm^3 pieces. Samples were fixed with the 0.1 M cacodylate buffer containing 2.5% glutaraldehyde plus 2% paraformaldehyde, and transferred onto carbon square mesh, followed by observation under Talos L120C TEM.

[3] = BAQ13 NPs loaded with the drug or dye

Compound: pheophorbide a
induction of autophagy (OSC-3 cells): induced autophagy

PDI [1, 3]: 0.101
Size/diameter [1, 3]: 110 nm
Encapsulation efficiency ([1]; drug or dye loaded in BAQ13 NPs): 85%
Drug-loading content ([1]; drug or dye loaded in BAQ13 NPs, mass ratio): 20%
Compound: CC(=O)c1cc2c(o1)C(=O)c1ccccc1C2=O [Napabucasin]
tumour growth (PCSC tumours): no antitumour effect

Compound: CO/C1=C\C(C)=C\[C@@H](C)[C@@H](O)[C@@H](C)C/C(C)=C/C=C/[C@H](OC)[C@@H]([C@@H](C)[C@@H](O)[C@H](C)[C@@]2(O)C[C@@H](O)[C@H](C)[C@@H](C(C)C)O2)OC1=O [bafilomycin A1]
LC3B-II and SQSTM1/p62 protein levels [2]: Such increases were also observed
